Measurements published in patent US20240293413A1, “COMPOUND AND METHOD FOR TREATING CHEMOTHERAPY-RELATED GASTROINTESTINAL SIDE EFFECTS” (ONQUALITY PHARMACEUTICALS CHINA LTD., priority 2021, published 2024).

What was measured:
[1] = test system: Chemotherapeutic agent-caused constipation models of Balb/c mice; test: Examples 272-342 (Table 5): oral CDK inhibitor, relief of constipation caused by a chemotherapeutic agent; format: in vivo; details: CDK inhibitor oral 150 mg/kg single;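 also: percent of treated mice relieved versus chemotherapy group by feces reduction rate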
Summary of the method: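 Balb/c mice, 10 per group: control, chemotherapeutic agent alone, or intragastric CDK inhibitor followed by the chemotherapeutic agent. Feces produced within 3 hours were recorded daily, and feces reduction rate (%) was calculated relative to the control group.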

[2] = test system: constipation caused by the continuous administration of a chemotherapeutic agent in Balb/c mice; test: Examples 470-481 (Table 10): oral CDK inhibitor, constipation caused by continuous administration of a chemotherapeutic agent; format: in vivo; details: Fluorouracil (5-Fu) intraperitoneal injection 100 mg/kg once a day
Source text: Balb/c mice were fed for 1 week, and then divided into groups. The experiment was divided into a control group, a chemotherapeutic agent group, and a CDK inhibitor group, each of which comprised 10 mice, to perform the administration experiment, for which the administration dosage, mode, time and frequency were shown in Table 10. The control group: being intragastrically administered with the same solvent as that used in the CDK inhibitor group (the time was shown in Table 10), and then being injected/intragastrically administered with the same solvent as that used in the chemotherapeutic agent group (the administration mode was shown in Table 10): the chemotherapeutic agent group: being intragastrically administered with the same solvent as that used in the CDK inhibitor group (the time was shown in Table 10), and then being injected/intragastrically administered with the chemotherapeutic agent (the type, administration mode, dosage and duration time were shown in Table 10): the CDK inhibitor group: being intragastrically administered with the CDK inhibitor (the time was shown in Table 10), and then being administered with the chemotherapeutic agent (the type, administration mode, dosage and duration time were shown in Table 10).
The feces reduction rate was calculated with reference to the method of Ji Eun Kim (Lab Anim Res. 2016 December: 32(4): 231-240.). Feces reduction rate (%)=(the control group−the chemotherapeutic agent group or the CDK inhibitor group)/the control group*100%
It is regarded as effective remission when the feces reduction rate of mice in the CDK inhibitor group is reduced compared with that in the chemotherapeutic agent group.
The feces amount of mice within 3 hours was observed and recorded every day. At the end of the experiment, the number of mice in the CDK inhibitor group whose feces reduction rate was lower than that of mice in the chemotherapeutic agent group was recorded. Table 10 lists various animal experiment combinations of chemotherapeutic agents and CDK inhibitors, as well as the corresponding experimental results.

Molecule `CC(=O)c1c(C)c2cnc(Nc3ccc(N4CCNCC4)cn3)nc2n(C2CCCC2)c1=O` [Palbociclib] has a Relative remission rate ([1]; Example 293, Fluorouracil (5-Fu) oral administration 300 mg/kg single, 8 h before, cycle 7 days) of 50%, a Relative remission rate ([1]; Example 304, Irinotecan (CPT-11) intraperitoneal injection 260 mg/kg single, 0.5 h before, cycle 7 days) of 40% and a Relative remission rate ([1]; Example 305, Irinotecan (CPT-11) intraperitoneal injection 260 mg/kg single, 4 h before, cycle 7 days) of 60%. For the same molecule, the Relative remission rate ([1]; Example 306, Irinotecan (CPT-11) intraperitoneal injection 260 mg/kg single, 8 h before, cycle 7 days) was 80%, the Relative remission rate ([1]; Example 307, Irinotecan (CPT-11) intraperitoneal injection 260 mg/kg single, 12 h before, cycle 7 days) was 70% and the Relative remission rate ([1]; Example 308, Irinotecan (CPT-11) intraperitoneal injection 260 mg/kg single, 24 h before, cycle 7 days) was 30%. The Relative remission rate ([1]; Example 309, Irinotecan (CPT-11) intraperitoneal injection 260 mg/kg single, 48 h before, cycle 7 days) was 0%, the Relative remission rate ([1]; Example 333, Cytarabine (Ara-C) intravenous injection 600 mg/kg single, 6 h before, cycle 8 days) was 50% and the Remission rate ([2]; Examples 470-473 (one value given; 2 h, 4 h, 6 h, 8 h before), for 3 days, CDK inhibitor oral 150 mg/kg once a day, for 3 days, cycle 10 days) was 40%. The Remission rate ([2]; Examples 474-477 (one value given; 2 h, 4 h, 6 h, 8 h before), for 5 days, CDK inhibitor oral 125 mg/kg once a day, for 5 days, cycle 9 days) was 50% and the Remission rate ([2]; Examples 478-481 (one value given; 2 h, 4 h, 6 h, 8 h before), for 7 days, CDK inhibitor oral 125 mg/kg once a day, for 7 days, cycle 10 days) was 10%.
